Measurements from PubChem BioAssay AID256 (DTP/NCI, 2004).
Several values for one entry are separate records, joined by “and”; a condition that tells them apart may be missing. Identical values can stand only once. Inconclusive results and toxic doses are left out. How the source made its calls: active means survival T/C of 150% or more; inactive means T/C below 125% in these data.

System: CD2F1 mice, L1210 leukemia ip, survival T/C
Assay: NCI In Vivo Anticancer Drug Screen. Data for tumor model L1210 Leukemia (intraperitoneal) in CD2F1 (CDF1) mice
Details: higher = longer survival
In short: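 Read-out first: treated-group measurement over vehicle-control measurement, expressed as a ratio. Animals bore a transplanted tumor line and were dosed with compound or vehicle.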

[1] = endpoint: mean survival time, dose: 100.0 mg/kg/injection, schedule: Q01DX009 (ip), vehicle: saline with Tween-80
[2] = endpoint: mean survival time, dose: 100.0 mg/kg/injection, schedule: Q04DX003 (ip), vehicle: saline with Tween-80
[3] = endpoint: mean survival time, dose: 200.0 mg/kg/injection, schedule: Q01DX009 (ip), vehicle: saline with Tween-80
[4] = endpoint: mean survival time, dose: 200.0 mg/kg/injection, schedule: Q04DX003 (ip), vehicle: saline with Tween-80
[5] = endpoint: mean survival time, dose: 400.0 mg/kg/injection, schedule: Q01DX009 (ip), vehicle: saline with Tween-80
[6] = endpoint: mean survival time, dose: 400.0 mg/kg/injection, schedule: Q04DX003 (ip), vehicle: saline with Tween-80
[7] = endpoint: mean survival time, dose: 100.0 mg/kg/injection, schedule: Q01DX001 (ip), vehicle: saline
[8] = endpoint: mean survival time, dose: 200.0 mg/kg/injection, schedule: Q01DX001 (ip), vehicle: saline
[9] = endpoint: mean survival time, dose: 200.0 mg/kg/injection, schedule: Q01DX001 (ip), vehicle: saline with Tween-80
[10] = endpoint: mean survival time, dose: 50.0 mg/kg/injection, schedule: Q01DX009 (ip), vehicle: saline with Tween-80
[11] = endpoint: mean survival time, dose: 100.0 mg/kg/injection, schedule: Q01DX001 (ip), vehicle: saline with Tween-80
[12] = endpoint: mean survival time, dose: 25.0 mg/kg/injection, schedule: Q01DX001 (ip), vehicle: saline with Tween-80

Measured: T/C

CCOC(=O)C1(C(=O)OCC)CCC(OCC)N1C(=O)c1ccccc1[N+](=O)[O-] (centres undefined)
inactive: endpoint: mean survival time, dose: 100.0 mg/kg/injection, schedule: Q01DX001 (ip), vehicle: Klucel (hydroxypropylcellulose) (HPC) 100 % of control | endpoint: mean survival time, dose: 200.0 mg/kg/injection, schedule: Q01DX001 (ip), vehicle: Klucel (hydroxypropylcellulose) (HPC) 92 % of control | endpoint: mean survival time, dose: 400.0 mg/kg/injection, schedule: Q01DX001 (ip), vehicle: Klucel (hydroxypropylcellulose) (HPC) 92 % of control

O=C(c1ccccc1)c1ccc2c(c1)-c1ccccc1-2
inactive: [1] 94 % of control | [2] 100 % of control | [3] 94 % of control | [4] 93 % of control | [5] 93 % of control | [6] 95 % of control

C[Si](c1ccccc1)c1ccccc1
inactive: endpoint: mean survival time, dose: 100.0 mg/kg/injection, schedule: Q01DX001 (ip), vehicle: other 97 % of control | endpoint: mean survival time, dose: 200.0 mg/kg/injection, schedule: Q01DX001 (ip), vehicle: other 100 % of control | endpoint: mean survival time, dose: 400.0 mg/kg/injection, schedule: Q01DX001 (ip), vehicle: other 100 % of control

COc1cc(C(=O)C=[N+]=[N-])cc(OC)c1OC(C)=O
inactive: [7] 91 % of control | [8] 96 % of control | endpoint: mean survival time, dose: 400.0 mg/kg/injection, schedule: Q01DX001 (ip), vehicle: saline 110 % of control

CCc1c(CC(=O)O)c2cc(C)ccc2n1Cc1ccc(Cl)cc1
inactive: endpoint: mean survival time, dose: 3.12 mg/kg/injection, schedule: Q01DX009 (ip), vehicle: Klucel (hydroxypropylcellulose) (HPC) 91 % of control | endpoint: mean survival time, dose: 6.25 mg/kg/injection, schedule: Q01DX009 (ip), vehicle: Klucel (hydroxypropylcellulose) (HPC) 104 % of control | endpoint: mean survival time, dose: 12.5 mg/kg/injection, schedule: Q01DX009 (ip), vehicle: Klucel (hydroxypropylcellulose) (HPC) 107 % of control | endpoint: mean survival time, dose: 25.0 mg/kg/injection, schedule: Q01DX009 (ip), vehicle: Klucel (hydroxypropylcellulose) (HPC) 102 % of control | endpoint: mean survival time, dose: 50.0 mg/kg/injection, schedule: Q01DX009 (ip), vehicle: Klucel (hydroxypropylcellulose) (HPC) 91 % of control | endpoint: mean survival time, dose: 100.0 mg/kg/injection, schedule: Q01DX009 (ip), vehicle: Klucel (hydroxypropylcellulose) (HPC) 96 % of control

ClCCN(CCCl)c1ccc(N=Nc2ccccc2)cc1
inactive: endpoint: mean survival time, dose: 100.0 mg/kg/injection, schedule: Q04DX003 (ip), vehicle: Klucel (hydroxypropylcellulose) (HPC) 102 % of control | endpoint: mean survival time, dose: 200.0 mg/kg/injection, schedule: Q04DX003 (ip), vehicle: Klucel (hydroxypropylcellulose) (HPC) 113 % of control | endpoint: mean survival time, dose: 400.0 mg/kg/injection, schedule: Q04DX003 (ip), vehicle: Klucel (hydroxypropylcellulose) (HPC) 113 % of control

CCCCCCCCCCCCCCC(=O)Nc1ccccc1
inactive: endpoint: mean survival time, dose: 12.5 mg/kg/injection, schedule: Q04DX002 (ip), vehicle: saline with Tween-80 101 % of control | endpoint: mean survival time, dose: 25.0 mg/kg/injection, schedule: Q04DX002 (ip), vehicle: saline with Tween-80 96 % of control | endpoint: mean survival time, dose: 50.0 mg/kg/injection, schedule: Q04DX002 (ip), vehicle: saline with Tween-80 86 % of control | [9] 89 % of control

Cc1nc2[nH]c(=O)n(O)c(=O)c2s1
inactive: endpoint: mean survival time, dose: 75.0 mg/kg/injection, schedule: Q01DX001 (ip), vehicle: other 102 % of control | endpoint: mean survival time, dose: 150.0 mg/kg/injection, schedule: Q01DX001 (ip), vehicle: other 100 % of control | endpoint: mean survival time, dose: 300.0 mg/kg/injection, schedule: Q01DX001 (ip), vehicle: other 86 % of control

O=[N+]([O-])c1cc(C(F)(F)F)cc([N+](=O)[O-])c1Cl
inactive: endpoint: mean survival time, dose: 1.56 mg/kg/injection, schedule: Q04DX003 (ip), vehicle: Klucel (hydroxypropylcellulose) (HPC) 98 % of control and 101 % of control | endpoint: mean survival time, dose: 3.12 mg/kg/injection, schedule: Q04DX003 (ip), vehicle: Klucel (hydroxypropylcellulose) (HPC) 98 % of control and 102 % of control | endpoint: mean survival time, dose: 6.25 mg/kg/injection, schedule: Q04DX003 (ip), vehicle: Klucel (hydroxypropylcellulose) (HPC) 95 % of control and 98 % of control | endpoint: mean survival time, dose: 12.5 mg/kg/injection, schedule: Q04DX003 (ip), vehicle: Klucel (hydroxypropylcellulose) (HPC) 90 % of control and 98 % of control

C=C(OP(=O)(OC)OC)Sc1ccccc1C
inactive: endpoint: median survival time, dose: 0.38 mg/kg/injection, schedule: Q01DX009 (ip), vehicle: Klucel (hydroxypropylcellulose) (HPC) 101 % of control | endpoint: median survival time, dose: 0.75 mg/kg/injection, schedule: Q01DX009 (ip), vehicle: Klucel (hydroxypropylcellulose) (HPC) 101 % of control

O=C(NC(CSCc1ccccc1)C(=O)O)OCc1ccccc1 (centres undefined)
inactive: [10] 98 % of control | [1] 94 % of control | [2] 93 % of control | [3] 103 % of control | [4] 101 % of control

CCCOc1ccc(C(N)=S)c2ccccc12
inactive: endpoint: mean survival time, dose: 100.0 mg/kg/injection, schedule: Q04DX002 (ip), vehicle: Klucel (hydroxypropylcellulose) (HPC) 105 % of control | endpoint: mean survival time, dose: 200.0 mg/kg/injection, schedule: Q04DX002 (ip), vehicle: Klucel (hydroxypropylcellulose) (HPC) 102 % of control | endpoint: mean survival time, dose: 400.0 mg/kg/injection, schedule: Q04DX002 (ip), vehicle: Klucel (hydroxypropylcellulose) (HPC) 105 % of control

CCOC(CNCc1ccc(OC)cc1)OCC
inactive: [7] 104 % of control | [8] 111 % of control

CC(O)(c1ccc(Cl)cc1)c1ccc(Cl)cc1
inactive: [2] 106 % of control | [4] 101 % of control | [6] 90 % of control

C=CCN(N=O)C(=O)OCC
inactive: endpoint: mean survival time, dose: 12.5 mg/kg/injection, schedule: Q01DX009 (ip), vehicle: other 107 % of control | endpoint: mean survival time, dose: 25.0 mg/kg/injection, schedule: Q01DX009 (ip), vehicle: other 107 % of control | endpoint: mean survival time, dose: 50.0 mg/kg/injection, schedule: Q01DX009 (ip), vehicle: other 104 % of control | endpoint: mean survival time, dose: 100.0 mg/kg/injection, schedule: Q01DX009 (ip), vehicle: other 113 % of control

C=CCNS(=O)(=O)c1ccc(C)cc1
inactive: [1] 93 % of control | [2] 98 % of control | [3] 100 % of control | [4] 98 % of control | [5] 90 % of control | [6] 94 % of control

Cc1cc(O)c(C(C)(C)C)cc1C(c1ccccc1)c1cc(C(C)(C)C)c(O)cc1C
inactive: [11] 93 % of control | [9] 93 % of control | endpoint: mean survival time, dose: 400.0 mg/kg/injection, schedule: Q01DX001 (ip), vehicle: saline with Tween-80 95 % of control

C[N+](C)=CN1c2ccccc2Sc2ccccc21
inactive: [1] 97 % of control | [3] 103 % of control

Clc1ccc(-c2nnn3ccccc23)cc1
inactive: endpoint: mean survival time, dose: 12.5 mg/kg/injection, schedule: Q01DX001 (ip), vehicle: saline with Tween-80 107 % of control | [12] 86 % of control | [7] 97 % of control | [8] 89 % of control

ClCc1ccc(Cl)cc1
inactive: [12] 102 % of control | endpoint: mean survival time, dose: 50.0 mg/kg/injection, schedule: Q01DX001 (ip), vehicle: saline with Tween-80 106 % of control | [11] 92 % of control and 102 % of control

c1ccc(CN2CCCCc3ccccc32)cc1
inactive: [10] 100 % of control | [1] 98 % of control | [3] 104 % of control

C[N+](C)(CC(=O)Nc1ccc(Cl)c(Cl)c1)CC(=O)c1ccc(Cl)cc1
inactive: endpoint: mean survival time, dose: 25.0 mg/kg/injection, schedule: Q01DX009 (ip), vehicle: saline 87 % of control

Cc1cccc(NC2=NCCO2)c1
inactive: [11] 104 % of control | [9] 103 % of control

NC(=O)C12CCCCC1CCC2 (centres undefined)
inactive: [2] 103 % of control | [4] 96 % of control | [6] 97 % of control

CNc1ncnc2c(C3OC(CO)C(O)C3O)[nH]nc12 (centres undefined)
inactive: endpoint: mean survival time, dose: 25.0 mg/kg/injection, schedule: Q01DX005 (ip), vehicle: water 108 % of control | endpoint: mean survival time, dose: 50.0 mg/kg/injection, schedule: Q01DX005 (ip), vehicle: water 120 % of control | endpoint: mean survival time, dose: 100.0 mg/kg/injection, schedule: Q01DX005 (ip), vehicle: water 96 % of control
